Experimental data from US11109593B2, “Isoxazolin-5-one derivative and herbicide containing same as active ingredient” (HOKKO CHEMICAL INDUSTRY CO., LTD., priority 2017, dated 2021).

test system: broad leaf weeds (Lindernia pyxidaria and Monochoria vaginalis); experiment: Test Example 1: herbicidal effect test by treatment of rice paddy soil (immediately after seeding); assay type: in vivo; conditions: Lindernia pyxidaria, 120 g/10a active ingredient, dry weight vs untreated area, 14 days after treatment
Procedure, shortened: (§1)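 Applied at 120 g a.i./10 ares as diluted emulsion dropped into flooded (~3 cm) paddy soil pots right after sowing seeds 0–1 cm deep; greenhouse, two replicates. At day 14, dry weight of treated versus untreated plants gives % herbicidal rate.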

| Structure (SMILES) | Herbicidal rate (%) Lindernia pyxidaria |
| --- | --- |
| CCc1c(Cc2ccccc2NS(=O)(=O)C(F)(F)F)c(=O)on1C(C)C [Compound 1-63] | 100% |
| COC(=O)N(c1ccccc1Cc1c(C)n(C(C)(C)C)oc1=O)S(=O)(=O)C(F)(F)F [Compound 1-576] | 90% |
| Cc1c(Cc2ccccc2N(S(=O)(=O)C(F)(F)F)S(=O)(=O)C(F)(F)F)c(=O)on1C1CCCCC1 [Compound 1-990] | 90% |

same assay, conditions: Monochoria vaginalis, 120 g/10a active ingredient, dry weight vs untreated area, 14 days after treatment

| Structure (SMILES) | Herbicidal rate (%) Monochoria vaginalis |
| --- | --- |
| CCc1c(Cc2ccccc2NS(=O)(=O)C(F)(F)F)c(=O)on1C(C)C [Compound 1-63] | 100% |
| COC(=O)N(c1ccccc1Cc1c(C)n(C(C)(C)C)oc1=O)S(=O)(=O)C(F)(F)F [Compound 1-576] | 90% |
| Cc1c(Cc2ccccc2N(S(=O)(=O)C(F)(F)F)S(=O)(=O)C(F)(F)F)c(=O)on1C1CCCCC1 [Compound 1-990] | 80% |

test system: Scirpus juncoides; experiment: as above; assay type: in vivo; conditions: 120 g/10a active ingredient, dry weight vs untreated area, 14 days after treatment
Procedure, shortened: as §1

| Structure (SMILES) | Herbicidal rate (%) Scirpus juncoides |
| --- | --- |
| CCc1c(Cc2ccccc2NS(=O)(=O)C(F)(F)F)c(=O)on1C(C)C [Compound 1-63] | 100% |
| COC(=O)N(c1ccccc1Cc1c(C)n(C(C)(C)C)oc1=O)S(=O)(=O)C(F)(F)F [Compound 1-576] | 90% |
| Cc1c(Cc2ccccc2N(S(=O)(=O)C(F)(F)F)S(=O)(=O)C(F)(F)F)c(=O)on1C1CCCCC1 [Compound 1-990] | 80% |

test system: Echinochloa crus-galli; experiment: as above; assay type: in vivo; conditions: 120 g/10a active ingredient, dry weight vs untreated area, 14 days after treatment
Procedure, shortened: as §1

| Structure (SMILES) | Herbicidal rate (%) Echinochloa crus-galli |
| --- | --- |
| CCc1c(Cc2ccccc2NS(=O)(=O)C(F)(F)F)c(=O)on1C(C)C [Compound 1-63] | 90% |
| COC(=O)N(c1ccccc1Cc1c(C)n(C(C)(C)C)oc1=O)S(=O)(=O)C(F)(F)F [Compound 1-576] | 90% |
| Cc1c(Cc2ccccc2N(S(=O)(=O)C(F)(F)F)S(=O)(=O)C(F)(F)F)c(=O)on1C1CCCCC1 [Compound 1-990] | 90% |

test system: southern crabgrass; experiment: Test Example 3: herbicidal effect test by treatment of dry field farming soil (one day after seeding); assay type: in vivo; conditions: 120 g/10a active ingredient, evaluated 14 days after treatment
Procedure, shortened: (§2)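 Pre-emergence soil treatment: alluvial dry-field soil, 20 seeds per species mixed into top 1 cm, emulsion diluted in water sprayed one day after seeding at 100 L per 10 ares (120 g active ingredient per 10 ares). Duplicate pots; herbicidal rate (%) from dry weight vs untreated at 14 days.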

| Structure (SMILES) | herbicidal rate, southern crabgrass |
| --- | --- |
| CCc1c(Cc2ccccc2NS(=O)(=O)C(F)(F)F)c(=O)on1C(C)C [Compound 1-63] | 90% |
| COC(=O)N(c1ccccc1Cc1c(C)n(C(C)(C)C)oc1=O)S(=O)(=O)C(F)(F)F [Compound 1-576] | 90% |
| Cc1c(Cc2ccccc2N(S(=O)(=O)C(F)(F)F)S(=O)(=O)C(F)(F)F)c(=O)on1C1CCCCC1 [Compound 1-990] | 50% |

test system: Amaranthus viridis; experiment: as above; assay type: in vivo; conditions: 120 g/10a active ingredient, evaluated 14 days after treatment
Procedure, shortened: as §2

| Structure (SMILES) | herbicidal rate, Amaranthus viridis |
| --- | --- |
| CCc1c(Cc2ccccc2NS(=O)(=O)C(F)(F)F)c(=O)on1C(C)C [Compound 1-63] | 40% |
| COC(=O)N(c1ccccc1Cc1c(C)n(C(C)(C)C)oc1=O)S(=O)(=O)C(F)(F)F [Compound 1-576] | 90% |
| Cc1c(Cc2ccccc2N(S(=O)(=O)C(F)(F)F)S(=O)(=O)C(F)(F)F)c(=O)on1C1CCCCC1 [Compound 1-990] | 0% |

test system: Chenopodium album; experiment: as above; assay type: in vivo; conditions: 120 g/10a active ingredient, evaluated 14 days after treatment
Procedure, shortened: as §2

| Structure (SMILES) | herbicidal rate, Chenopodium album |
| --- | --- |
| CCc1c(Cc2ccccc2NS(=O)(=O)C(F)(F)F)c(=O)on1C(C)C [Compound 1-63] | 40% |
| COC(=O)N(c1ccccc1Cc1c(C)n(C(C)(C)C)oc1=O)S(=O)(=O)C(F)(F)F [Compound 1-576] | 90% |
| Cc1c(Cc2ccccc2N(S(=O)(=O)C(F)(F)F)S(=O)(=O)C(F)(F)F)c(=O)on1C1CCCCC1 [Compound 1-990] | 50% |

test system: Echinochloa crus-galli; experiment: as above; assay type: in vivo; conditions: 120 g/10a active ingredient, evaluated 14 days after treatment
Procedure, shortened: as §2

| Structure (SMILES) | herbicidal rate, Echinochloa crus-galli |
| --- | --- |
| CCc1c(Cc2ccccc2NS(=O)(=O)C(F)(F)F)c(=O)on1C(C)C [Compound 1-63] | 90% |
| COC(=O)N(c1ccccc1Cc1c(C)n(C(C)(C)C)oc1=O)S(=O)(=O)C(F)(F)F [Compound 1-576] | 90% |
| Cc1c(Cc2ccccc2N(S(=O)(=O)C(F)(F)F)S(=O)(=O)C(F)(F)F)c(=O)on1C1CCCCC1 [Compound 1-990] | 50% |

test system: southern crabgrass; experiment: Test Example 4: herbicidal effect test by treatment of leave and stem in dry field farming (seven days after seeding); assay type: in vivo; conditions: 120 g/10a active ingredient; emulsion sprayed seven days after seeding; evaluated 14 days after treatment
Procedure, shortened: (§3)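 Twenty seeds per species were mixed into the top 1 cm of alluvial soil in 36 cm^2 pots; emulsions were sprayed seven days after seeding at 100 L per 10 ares (120 g active ingredient per 10 ares). Herbicidal rate (%) = {1 − treated/untreated mean dry weight} × 100, 14 days after treatment, duplicate.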

| Structure (SMILES) | herbicidal effect (herbicidal rate), southern crabgrass |
| --- | --- |
| CCc1c(Cc2ccccc2NS(=O)(=O)C(F)(F)F)c(=O)on1C(C)C [Compound 1-63] | 60% |
| COC(=O)N(c1ccccc1Cc1c(C)n(C(C)(C)C)oc1=O)S(=O)(=O)C(F)(F)F [Compound 1-576] | 90% |
| Cc1c(Cc2ccccc2N(S(=O)(=O)C(F)(F)F)S(=O)(=O)C(F)(F)F)c(=O)on1C1CCCCC1 [Compound 1-990] | 0% |

test system: Amaranthus viridis; experiment: as above; assay type: in vivo; conditions: 120 g/10a active ingredient; emulsion sprayed seven days after seeding; evaluated 14 days after treatment
Procedure, shortened: as §3

| Structure (SMILES) | herbicidal effect (herbicidal rate), Amaranthus viridis |
| --- | --- |
| CCc1c(Cc2ccccc2NS(=O)(=O)C(F)(F)F)c(=O)on1C(C)C [Compound 1-63] | 40% |
| COC(=O)N(c1ccccc1Cc1c(C)n(C(C)(C)C)oc1=O)S(=O)(=O)C(F)(F)F [Compound 1-576] | 40% |
| Cc1c(Cc2ccccc2N(S(=O)(=O)C(F)(F)F)S(=O)(=O)C(F)(F)F)c(=O)on1C1CCCCC1 [Compound 1-990] | 50% |

test system: Chenopodium album; experiment: as above; assay type: in vivo; conditions: 120 g/10a active ingredient; emulsion sprayed seven days after seeding; evaluated 14 days after treatment
Procedure, shortened: as §3

| Structure (SMILES) | herbicidal effect (herbicidal rate), Chenopodium album |
| --- | --- |
| CCc1c(Cc2ccccc2NS(=O)(=O)C(F)(F)F)c(=O)on1C(C)C [Compound 1-63] | 60% |
| COC(=O)N(c1ccccc1Cc1c(C)n(C(C)(C)C)oc1=O)S(=O)(=O)C(F)(F)F [Compound 1-576] | 40% |
| Cc1c(Cc2ccccc2N(S(=O)(=O)C(F)(F)F)S(=O)(=O)C(F)(F)F)c(=O)on1C1CCCCC1 [Compound 1-990] | 40% |

test system: Echinochloa crus-galli; experiment: as above; assay type: in vivo; conditions: 120 g/10a active ingredient; emulsion sprayed seven days after seeding; evaluated 14 days after treatment
Procedure, shortened: as §3

| Structure (SMILES) | herbicidal effect (herbicidal rate), Echinochloa crus-galli |
| --- | --- |
| CCc1c(Cc2ccccc2NS(=O)(=O)C(F)(F)F)c(=O)on1C(C)C [Compound 1-63] | 90% |
| COC(=O)N(c1ccccc1Cc1c(C)n(C(C)(C)C)oc1=O)S(=O)(=O)C(F)(F)F [Compound 1-576] | 90% |
| Cc1c(Cc2ccccc2N(S(=O)(=O)C(F)(F)F)S(=O)(=O)C(F)(F)F)c(=O)on1C1CCCCC1 [Compound 1-990] | 60% |

test system: broad leaf weeds (Lindernia pyxidaria and Monochoria vaginalis); experiment: Test Example 2: herbicidal effect test by treatment during growing period in paddy rice cultivation (seven days after seeding); assay type: in vivo; conditions: Lindernia pyxidaria, 120 g/10a active ingredient, assessed 14 days after treatment, dry weight vs untreated area
Procedure, shortened: (§4)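 Paddy soil in Wagner pots with compound fertilizer, puddled; 30 seeds per species sown at 0–1 cm, flooded ~3 cm, greenhouse. Seven days after seeding, water-diluted emulsions were dropped into the water at 120 g active ingredient per 10 ares. Duplicate pots; herbicidal rate from dry weight versus untreated, 14 days after treatment.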

| Structure (SMILES) | Herbicidal rate (%) Lindernia pyxidaria |
| --- | --- |
| CCc1c(Cc2ccccc2NS(=O)(=O)C(F)(F)F)c(=O)on1C(C)C [Compound 1-63] | 80% |
| COC(=O)N(c1ccccc1Cc1c(C)n(C(C)(C)C)oc1=O)S(=O)(=O)C(F)(F)F [Compound 1-576] | 90% |
| Cc1c(Cc2ccccc2N(S(=O)(=O)C(F)(F)F)S(=O)(=O)C(F)(F)F)c(=O)on1C1CCCCC1 [Compound 1-990] | 100% |

same assay, conditions: Monochoria vaginalis, 120 g/10a active ingredient, assessed 14 days after treatment, dry weight vs untreated area

| Structure (SMILES) | Herbicidal rate (%) Monochoria vaginalis |
| --- | --- |
| CCc1c(Cc2ccccc2NS(=O)(=O)C(F)(F)F)c(=O)on1C(C)C [Compound 1-63] | 90% |
| COC(=O)N(c1ccccc1Cc1c(C)n(C(C)(C)C)oc1=O)S(=O)(=O)C(F)(F)F [Compound 1-576] | 90% |
| Cc1c(Cc2ccccc2N(S(=O)(=O)C(F)(F)F)S(=O)(=O)C(F)(F)F)c(=O)on1C1CCCCC1 [Compound 1-990] | 80% |

test system: Scirpus juncoides; experiment: as above; assay type: in vivo; conditions: 120 g/10a active ingredient, assessed 14 days after treatment, dry weight vs untreated area
Procedure, shortened: as §4

| Structure (SMILES) | Herbicidal rate (%) Scirpus juncoides |
| --- | --- |
| CCc1c(Cc2ccccc2NS(=O)(=O)C(F)(F)F)c(=O)on1C(C)C [Compound 1-63] | 90% |
| COC(=O)N(c1ccccc1Cc1c(C)n(C(C)(C)C)oc1=O)S(=O)(=O)C(F)(F)F [Compound 1-576] | 90% |
| Cc1c(Cc2ccccc2N(S(=O)(=O)C(F)(F)F)S(=O)(=O)C(F)(F)F)c(=O)on1C1CCCCC1 [Compound 1-990] | 80% |

test system: Echinochloa crus-galli; experiment: as above; assay type: in vivo; conditions: 120 g/10a active ingredient, assessed 14 days after treatment, dry weight vs untreated area
Procedure, shortened: as §4

| Structure (SMILES) | Herbicidal rate (%) Echinochloa crus-galli |
| --- | --- |
| CCc1c(Cc2ccccc2NS(=O)(=O)C(F)(F)F)c(=O)on1C(C)C [Compound 1-63] | 80% |
| COC(=O)N(c1ccccc1Cc1c(C)n(C(C)(C)C)oc1=O)S(=O)(=O)C(F)(F)F [Compound 1-576] | 90% |
| Cc1c(Cc2ccccc2N(S(=O)(=O)C(F)(F)F)S(=O)(=O)C(F)(F)F)c(=O)on1C1CCCCC1 [Compound 1-990] | 100% |
